Reference: patent publication US10800791B2, “Triazole ACC inhibitors and uses thereof” (Gilead Apollo, LLC, priority 2015, dated 2020)
Values after ≈ are worked out from the molar mass of the structure shown. Where two headings read alike, the source gives them in different places.

Legend:
[1] = target: human (hACC2) (Homo sapiens, UniProt O00763); experiment: In vitro ACC inhibition assay (ADP-Glo), hACC2; format: biochemical; settings: 5 nM ACC2, 20 μM ATP, 20 μM acetyl-CoA
Method: The detailed procedure is as follows. […] 10 μL ADP glo reagent was added. […] 20 μL kinase detection reagent was added.

[2] = test system: C. albicans; experiment: Antifungal Activity Assay (broth microtiter MIC), C. albicans; format: cell-based, Candida albicans; settings: Candida albicans, ATCC90028, 48 h, ATCC 90028, 3 replicates, MIC recorded at 48 h, read-out: MIC, C. albicans ATCC 90028
Outline: (§1)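 CLSI M27-A3 microdilution; RPMI 1640+MOPS; 2.5×10^3 CFU/mL final inoculum; cultures from Sabouraud dextrose agar, 35° C overnight; compound working solution 128 μg/mL from 1 mg/mL DMSO stock; visual MIC at 48 h vs growth control.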

[3] = test system: C. krusei; experiment: Antifungal Activity Assay (broth microtiter MIC), C. krusei; format: cell-based, Candida krusei; settings: Pichia kudriavzevii, ATCC6258, 48 h, ATCC 6258, 3 replicates, MIC recorded at 48 h, read-out: MIC, C. krusei ATCC 6258
Outline: as §1

[4] = test system: C. parapsilosis; experiment: Antifungal Activity Assay (broth microtiter MIC), C. parapsilosis; format: cell-based, Candida parapsilosis; settings: Lodderomyces parapsilosis, ATCC22019, 48 h, ATCC 22019, 3 replicates, MIC recorded at 48 h, read-out: MIC, C. parapsilosis ATCC 22019
Outline: as §1

[5] = test system: Botrtyis cinerea (Bc); experiment: Growth inhibition assay of fungal pathogens, Bc; format: cell-based; settings: 48 h, Botrtyis cinerea; growth inhibition at 48 hours vs 2% DMSO control; read-out: Concentration at 90% Inhibition Bc
Outline: (§2)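 Read-out: OD600 plus visual rating at 24 and 48 h, blank (media + 2% DMSO) subtracted. Percent inhibition was derived at 48 h versus the 2% DMSO control. Spores were grown in 17% V8 broth with compound at 50/10/2 or 2/0.4/0.08 ppm final.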

[6] = test system: Collectotrichum graminicola (Cg); experiment: Growth inhibition assay of fungal pathogens, Cg; format: cell-based; settings: 48 h, Collectotrichum graminicola; growth inhibition at 48 hours vs 2% DMSO control; read-out: Concentration at 90% Inhibition Cg
Outline: as §2

[7] = test system: Diplodia maydis (Dm); experiment: Growth inhibition assay of fungal pathogens, Dm; format: cell-based; settings: Stenocarpella maydis, 48 h, Diplodia maydis; growth inhibition at 48 hours vs 2% DMSO control; read-out: Concentration at 90% Inhibition Dm
Outline: as §2

[8] = test system: Fusarium moniliforme (Fm); experiment: Growth inhibition assay of fungal pathogens, Fm; format: cell-based; settings: Fusarium verticillioides, 48 h, Fusarium moniliforme; growth inhibition at 48 hours vs 2% DMSO control; read-out: Concentration at 90% Inhibition Fm
Outline: as §2

[9] = test system: Fusarium virguliforme (Fv); experiment: Growth inhibition assay of fungal pathogens, Fv; format: cell-based; settings: 48 h, growth inhibition at 48 hours vs 2% DMSO control, read-out: Concentration at 90% Inhibition Fv
Outline: as §2

[10] = test system: Phytophthora capsici (Pc); experiment: Growth inhibition assay of fungal pathogens, Pc; format: cell-based; settings: 48 h, growth inhibition at 48 hours vs 2% DMSO control, read-out: Concentration at 90% Inhibition Pc
Outline: as §2

[11] = test system: Rhizoctonia solani (Rs); experiment: Growth inhibition assay of fungal pathogens, Rs; format: cell-based; settings: 48 h, mycelial plugs, growth inhibition at 48 hours vs 2% DMSO control, read-out: Concentration at 90% Inhibition Rs
[12] = test system: Septoria tritici (St); experiment: Growth inhibition assay of fungal pathogens, St; format: cell-based; settings: Zymoseptoria tritici, 48 h, Septoria tritici; growth inhibition at 48 hours vs 2% DMSO control; read-out: Concentration at 90% Inhibition St
Outline: as §2

[13] = target: fungal (fACC2) (UniProt Q00955); settings: read-out: fACC2 (in vitro ACC2 Inhibition Assay, IC50), ADP-Glo, 5 nM ACC2, 20 μM ATP, 20 μM acetyl-CoA
Chain of fungal (fACC2) (Q00955 whole entry): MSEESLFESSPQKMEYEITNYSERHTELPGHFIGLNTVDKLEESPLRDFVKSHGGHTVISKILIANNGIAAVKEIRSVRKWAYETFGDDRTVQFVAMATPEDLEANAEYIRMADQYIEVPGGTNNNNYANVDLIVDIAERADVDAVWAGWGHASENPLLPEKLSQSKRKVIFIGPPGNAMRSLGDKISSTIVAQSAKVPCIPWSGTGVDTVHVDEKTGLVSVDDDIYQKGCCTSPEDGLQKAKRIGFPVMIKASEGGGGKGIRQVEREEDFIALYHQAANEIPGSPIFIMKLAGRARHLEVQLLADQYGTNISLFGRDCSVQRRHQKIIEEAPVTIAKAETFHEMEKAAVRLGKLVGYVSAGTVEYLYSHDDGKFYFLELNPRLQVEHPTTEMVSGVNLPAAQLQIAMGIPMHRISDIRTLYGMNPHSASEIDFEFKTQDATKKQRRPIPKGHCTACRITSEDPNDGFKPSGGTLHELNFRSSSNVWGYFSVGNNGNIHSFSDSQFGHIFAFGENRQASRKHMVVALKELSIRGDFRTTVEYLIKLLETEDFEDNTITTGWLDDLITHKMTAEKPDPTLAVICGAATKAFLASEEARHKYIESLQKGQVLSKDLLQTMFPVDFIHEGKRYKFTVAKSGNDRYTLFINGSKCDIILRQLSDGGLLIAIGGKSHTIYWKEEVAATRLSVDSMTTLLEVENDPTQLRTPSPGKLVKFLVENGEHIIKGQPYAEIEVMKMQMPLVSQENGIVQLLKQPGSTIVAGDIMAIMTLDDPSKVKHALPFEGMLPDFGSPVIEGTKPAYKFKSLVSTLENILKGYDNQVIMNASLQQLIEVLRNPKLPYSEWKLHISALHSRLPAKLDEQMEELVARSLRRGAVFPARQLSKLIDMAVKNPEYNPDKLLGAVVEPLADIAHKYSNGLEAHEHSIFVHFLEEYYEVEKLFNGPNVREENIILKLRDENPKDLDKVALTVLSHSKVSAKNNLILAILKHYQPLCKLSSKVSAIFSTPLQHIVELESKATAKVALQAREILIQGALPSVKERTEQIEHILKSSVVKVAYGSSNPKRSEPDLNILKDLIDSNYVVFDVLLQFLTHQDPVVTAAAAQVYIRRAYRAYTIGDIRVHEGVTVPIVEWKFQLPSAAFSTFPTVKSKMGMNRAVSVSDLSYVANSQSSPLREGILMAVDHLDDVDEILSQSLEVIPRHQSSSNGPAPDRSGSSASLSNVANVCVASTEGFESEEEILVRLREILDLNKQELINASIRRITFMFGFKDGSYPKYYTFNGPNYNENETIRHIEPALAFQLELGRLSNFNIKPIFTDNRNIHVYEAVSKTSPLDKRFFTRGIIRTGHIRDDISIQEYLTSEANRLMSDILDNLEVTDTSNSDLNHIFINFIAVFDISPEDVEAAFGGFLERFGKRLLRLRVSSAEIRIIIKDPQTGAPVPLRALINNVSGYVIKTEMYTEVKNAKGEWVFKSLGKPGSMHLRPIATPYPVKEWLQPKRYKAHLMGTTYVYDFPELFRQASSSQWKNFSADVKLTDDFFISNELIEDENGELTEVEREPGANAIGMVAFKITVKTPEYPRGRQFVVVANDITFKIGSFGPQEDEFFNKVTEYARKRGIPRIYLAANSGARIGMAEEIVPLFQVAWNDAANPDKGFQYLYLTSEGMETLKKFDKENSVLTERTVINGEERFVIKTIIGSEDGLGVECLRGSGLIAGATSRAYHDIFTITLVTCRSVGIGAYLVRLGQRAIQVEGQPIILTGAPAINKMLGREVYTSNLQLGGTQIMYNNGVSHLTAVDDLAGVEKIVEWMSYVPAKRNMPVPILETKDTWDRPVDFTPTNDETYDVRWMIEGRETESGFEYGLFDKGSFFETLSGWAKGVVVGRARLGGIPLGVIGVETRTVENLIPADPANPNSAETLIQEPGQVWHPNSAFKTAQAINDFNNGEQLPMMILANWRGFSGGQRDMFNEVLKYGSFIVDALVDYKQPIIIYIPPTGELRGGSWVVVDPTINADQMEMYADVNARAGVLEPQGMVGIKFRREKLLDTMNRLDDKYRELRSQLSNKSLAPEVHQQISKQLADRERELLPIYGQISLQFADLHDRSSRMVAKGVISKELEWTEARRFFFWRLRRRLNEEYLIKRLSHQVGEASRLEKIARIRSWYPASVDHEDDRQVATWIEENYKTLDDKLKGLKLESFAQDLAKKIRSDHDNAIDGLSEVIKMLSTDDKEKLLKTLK
Method: An exemplary procedure for the in vitro ACC inhibition assay, which can be used to determine the inhibitory action of compounds of the invention toward either human (hACC2) or fungal (fACC2), follows. The ADP-Glo™ Kinase Assay kit from Promega was used. The ADP-Glo™ Kinase Assay is a luminescent ADP detection assay to measure enzymatic activity by quantifying the amount of ADP produced during an enzyme reaction. The assay is performed in two steps; first, after the enzyme reaction, an equal volume of ADP-Glo™ Reagent is added to terminate the reaction and deplete the remaining ATP. Second, the Kinase Detection Reagent is added to simultaneously convert ADP to ATP and allow the newly synthesized ATP to be measured using a luciferase/luciferin reaction. Luminescence can be correlated to ADP concentrations by using an ATP-to-ADP conversion curve. […] 50 μL of the compound being tested (600 μM in DMSO) was added to a 384-well dilution plate. The compound was diluted 1:3 in succession in DMSO for each row for 11 wells. 0.5 μL ACC2 working solution was added to 384-well white Optiplate assay plate. 0.5 μL diluted compound solution in each column from step 2 was added to assay plate, each row containing 2 replicates. […] The plates were incubated at room temperature for 15 minutes. 5 μL substrate working solution was added to each well to initiate reaction. Final ACC2 reaction concentrations consist of: 5 nM ACC2, 20 μM ATP, 20 μM acetyl-CoA, 12 mM NaHCO3, 0.01% Brij35, 2 mM DTT, 5% DMSO, test compound concentrations: 30 μM, 10 μM, 3.33 μM, 1.11 μM, 0.37 μM, 0.123 μM, 0.0411 μM, 0.0137 μM, 0.00457 μM, 0.00152 μM, and 0.00051 μM. Plates were incubated at room temperature for 60 minutes. 10 μL ADP glo reagent was added. Plates were incubated at room temperature for 40 minutes. 20 μL kinase detection reagent was added. Plates were incubated at room temperature for 40 minutes, and then read on a Perkin Elmer EnVision 2104 plate reader for luminescence as Relative Light Units (RLU).
Data for each concentration, as well as the positive and negative controls were averaged, and the standard deviation calculated. Percent inhibition was calculated by the formula: 100×(average negative control−compound)/(average negative control−average positive control). The IC50 for each compound was calculated by fitting the data with a non-linear regression equation: Y=Bottom+(Top−Bottom)/(1+10 ((Log IC50−X)*HillSlope)), where X is the log of compound concentration and Y is percent inhibition.

Chain of human (hACC2) (O00763 whole entry): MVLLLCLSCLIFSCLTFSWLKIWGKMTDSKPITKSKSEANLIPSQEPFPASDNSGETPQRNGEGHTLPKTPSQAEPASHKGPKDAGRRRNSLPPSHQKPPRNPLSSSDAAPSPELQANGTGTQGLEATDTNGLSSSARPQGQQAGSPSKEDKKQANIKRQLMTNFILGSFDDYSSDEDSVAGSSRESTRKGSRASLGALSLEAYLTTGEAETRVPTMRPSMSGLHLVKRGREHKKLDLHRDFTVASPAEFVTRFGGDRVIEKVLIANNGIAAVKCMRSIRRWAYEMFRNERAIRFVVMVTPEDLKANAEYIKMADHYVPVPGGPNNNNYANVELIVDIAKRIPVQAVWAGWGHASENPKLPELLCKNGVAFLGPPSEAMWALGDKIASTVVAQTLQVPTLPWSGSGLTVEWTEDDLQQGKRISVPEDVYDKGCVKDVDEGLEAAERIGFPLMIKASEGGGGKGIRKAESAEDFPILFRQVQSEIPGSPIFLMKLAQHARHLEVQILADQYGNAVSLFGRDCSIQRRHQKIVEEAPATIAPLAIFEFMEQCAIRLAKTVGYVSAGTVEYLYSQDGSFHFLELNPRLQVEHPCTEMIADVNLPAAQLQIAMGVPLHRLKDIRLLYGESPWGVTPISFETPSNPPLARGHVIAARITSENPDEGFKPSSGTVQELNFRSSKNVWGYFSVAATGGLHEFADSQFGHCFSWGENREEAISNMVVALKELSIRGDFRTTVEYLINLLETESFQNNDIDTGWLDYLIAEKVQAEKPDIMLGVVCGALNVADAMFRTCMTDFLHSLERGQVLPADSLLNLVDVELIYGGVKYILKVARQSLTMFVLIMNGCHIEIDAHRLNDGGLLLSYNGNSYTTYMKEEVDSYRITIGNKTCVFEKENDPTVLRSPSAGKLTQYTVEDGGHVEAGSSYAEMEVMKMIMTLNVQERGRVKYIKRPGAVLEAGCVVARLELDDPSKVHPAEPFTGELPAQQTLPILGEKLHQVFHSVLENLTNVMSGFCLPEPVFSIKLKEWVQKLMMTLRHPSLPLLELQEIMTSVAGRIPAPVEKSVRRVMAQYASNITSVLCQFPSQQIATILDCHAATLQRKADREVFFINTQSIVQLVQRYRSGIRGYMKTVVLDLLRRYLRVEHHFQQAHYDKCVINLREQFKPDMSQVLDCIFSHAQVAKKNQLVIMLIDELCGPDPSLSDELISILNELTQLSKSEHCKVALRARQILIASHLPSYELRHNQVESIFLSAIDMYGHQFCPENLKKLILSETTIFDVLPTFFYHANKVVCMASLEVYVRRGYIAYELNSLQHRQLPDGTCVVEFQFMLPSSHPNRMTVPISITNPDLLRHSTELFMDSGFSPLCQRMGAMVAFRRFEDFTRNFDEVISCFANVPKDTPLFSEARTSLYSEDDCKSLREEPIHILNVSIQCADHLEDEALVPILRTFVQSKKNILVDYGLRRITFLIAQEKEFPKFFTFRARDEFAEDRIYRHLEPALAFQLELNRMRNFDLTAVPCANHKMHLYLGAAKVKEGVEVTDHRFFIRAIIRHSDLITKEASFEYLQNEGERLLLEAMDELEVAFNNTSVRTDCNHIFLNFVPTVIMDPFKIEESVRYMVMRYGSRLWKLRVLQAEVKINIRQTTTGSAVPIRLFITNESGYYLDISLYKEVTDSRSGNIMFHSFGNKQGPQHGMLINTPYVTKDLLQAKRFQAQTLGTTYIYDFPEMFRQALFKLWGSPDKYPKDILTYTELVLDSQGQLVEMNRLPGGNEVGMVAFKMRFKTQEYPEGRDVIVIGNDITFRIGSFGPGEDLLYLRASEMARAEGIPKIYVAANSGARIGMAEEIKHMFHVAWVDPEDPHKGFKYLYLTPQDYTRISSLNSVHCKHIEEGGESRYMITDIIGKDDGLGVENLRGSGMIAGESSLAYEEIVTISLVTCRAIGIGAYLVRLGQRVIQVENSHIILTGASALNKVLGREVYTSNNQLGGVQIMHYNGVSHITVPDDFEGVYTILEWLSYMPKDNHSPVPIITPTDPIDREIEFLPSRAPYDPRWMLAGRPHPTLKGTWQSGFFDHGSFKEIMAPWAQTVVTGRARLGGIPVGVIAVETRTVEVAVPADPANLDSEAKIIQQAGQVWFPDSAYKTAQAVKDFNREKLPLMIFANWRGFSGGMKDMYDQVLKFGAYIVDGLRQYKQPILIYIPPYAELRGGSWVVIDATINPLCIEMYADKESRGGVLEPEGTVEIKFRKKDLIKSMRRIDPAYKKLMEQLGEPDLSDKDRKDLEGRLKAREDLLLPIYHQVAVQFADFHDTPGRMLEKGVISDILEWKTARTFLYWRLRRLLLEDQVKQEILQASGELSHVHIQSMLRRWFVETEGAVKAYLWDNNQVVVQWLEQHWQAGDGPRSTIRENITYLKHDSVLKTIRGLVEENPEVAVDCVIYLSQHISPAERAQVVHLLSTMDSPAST

Compound	IC50 ([1]; Table 2a)	IC50 ([1]; Table 2b, additional results)	MIC ([2]; Table 3a)	MIC ([2]; Table 3b (additional results))	MIC ([3]; Table 3a)	MIC ([3]; Table 3b (additional results))	MIC ([4]; Table 3a)	MIC ([4]; Table 3b (additional results))	IC90 [5]	IC90 [6]	IC90 [7]	IC90 [8]	IC90 [9]	IC90 [10]	IC90 [11]	IC90 [12]	IC50 ([13]; Table 2a)	IC50 ([13]; Table 2b, additional results)
CCNC(=O)C(C)(C)n1c(=O)c2c(C)c(-n3nccn3)sc2n(C[C@H](OCCC#N)c2ccccc2OC)c1=O [Compound I-142]	1 to 5 nM	1 to 5 nM	2.1 to 4 mg/L (≈ 3.71 to 7.07 µM)	2.01 to 4 mg/L (≈ 3.55 to 7.07 µM)	1.1 to 2 mg/L (≈ 1.94 to 3.54 µM)	2.01 to 4 mg/L (≈ 3.55 to 7.07 µM)	2.1 to 4 mg/L (≈ 3.71 to 7.07 µM)	1.01 to 2 mg/L (≈ 1.79 to 3.54 µM)	0.4 mg/L (≈ 0.707 µM)	2 mg/L (≈ 3.54 µM)	2 mg/L (≈ 3.54 µM)	0.4 mg/L (≈ 0.707 µM)	0.4 mg/L (≈ 0.707 µM)	> 50 mg/L	0.08 mg/L (≈ 0.141 µM)	> 50 mg/L	1 to 5 nM	1 to 5 nM
COc1ccccc1[C@H](Cn1c(=O)n([C@H](C)C(=O)N(C)C(C)C)c(=O)c2c(C)c(-n3nccn3)sc21)OCCC#N [Compound I-205]		5 to 10 nM		2.01 to 4 mg/L (≈ 3.47 to 6.9 µM)		2.01 to 4 mg/L (≈ 3.47 to 6.9 µM)		1.01 to 2 mg/L (≈ 1.74 to 3.45 µM)	2 mg/L (≈ 3.45 µM)	10 mg/L (≈ 17.3 µM)	10 mg/L (≈ 17.3 µM)	2 mg/L (≈ 3.45 µM)	10 mg/L (≈ 17.3 µM)	> 50 mg/L	10 mg/L (≈ 17.3 µM)	> 50 mg/L		0.3 to 1 nM
COc1ccccc1[C@@H](O)Cn1c(=O)n(C(C)(C)C(N)=O)c(=O)c2c(C)c(-n3nccn3)sc21 [Compound I-196]		10 to 40 nM		> 4.01 mg/L		2.01 to 4 mg/L (≈ 4.15 to 8.26 µM)		> 4.01 mg/L	> 50 mg/L	> 50 mg/L	> 50 mg/L	> 50 mg/L	> 50 mg/L	> 50 mg/L	2 mg/L (≈ 4.13 µM)	> 50 mg/L		1 to 5 nM
CCc1ccc(F)cc1[C@@H](Cn1c(=O)n(C(C)(C)C(=O)NC(C)C)c(=O)c2c(C)c(-n3nccn3)sc21)OC[C@@H](C)C#N [Compound I-247]		1 to 5 nM		2.01 to 4 mg/L (≈ 3.3 to 6.56 µM)		> 4.01 mg/L		2.01 to 4 mg/L (≈ 3.3 to 6.56 µM)	0.4 mg/L (≈ 0.656 µM)	0.08 mg/L (≈ 0.131 µM)	2 mg/L (≈ 3.28 µM)	0.08 mg/L (≈ 0.131 µM)	0.4 mg/L (≈ 0.656 µM)	> 50 mg/L	0.08 mg/L (≈ 0.131 µM)	> 50 mg/L		1 to 5 nM
COc1ccc(F)cc1[C@@H](O)Cn1c(=O)n(C(C)(C)C(N)=O)c(=O)c2c(C)c(-n3nccn3)sc21 [Compound I-194]		5 to 10 nM		2.01 to 4 mg/L (≈ 4 to 7.96 µM)		2.01 to 4 mg/L (≈ 4 to 7.96 µM)		> 4.01 mg/L	10 mg/L (≈ 19.9 µM)	> 50 mg/L	> 50 mg/L	10 mg/L (≈ 19.9 µM)	> 50 mg/L	> 50 mg/L	> 50 mg/L	> 50 mg/L		1 to 5 nM
